How the values were obtained:
[1] = target: T1, E. coli Tat machinery (IMVs containing overproduced TatABC) (Escherichia coli, UniProt P69423+P69425+P69428); test: In vitro Tat transport assay of pre-SufI into IMVs, ATP as energy source; type: biochemical; conditions: hit compound 100 μM
Procedure: (§1) To directly test for inhibition of Tat transport, a gel-based in vitro Tat transport assay was performed using pre-SufI, an authentic Tat precursor protein [7]. In short, this assay consists of incubating a Tat substrate and a Δψ-generating energy source with inverted membrane vesicles (IMVs) containing overproduced TatABC, digesting remaining external protein with a protease, and then analyzing via SDS-PAGE. This assay was run twice using NADH and ATP (if warranted) as energy sources to generate the necessary Δψ. NADH generates a Δψ using respiratory proteins (i.e., the NADH dehydrogenase and cytochrome bo3 ubiquinol oxidase complexes) and ATP generates a Δψ by reversal of ATP synthase. A true Tat inhibitor would survive both assays. In contrast, a respiration inhibitor is expected to reduce Tat transport when only one of the two energy sources is used (except for an ionophore).
(§2) Fig 8 Effect of Hits from the Local HTS on In Vitro Tat Transport. (A) Tat transport assays of pre-SufI using NADH to generate a Δψ. […] Samples were treated with the protease proteinase K, run on SDS-PAGE, and analyzed by in-gel fluorescence imaging. Assays were run in duplicate. Band intensity corresponds to the amount of protein transported into the IMV lumen. The following 7 compounds survived this screen: 1^JS, 51^JS, 55^JS, 111^JS, 181^JS, 202^JS, and 140^JS (boxed in red). (B) Tat transport assays of pre-SufI using ATP to generate a Δψ. All 7 compounds surviving the screen in (A) were tested using a Tat transport assay performed identically to those in (A) except that ATP (1 mM) was used in place of NADH. […]
(§3) Isolation of inverted membrane vesicles (IMVs), Western blot analyses and purification of pre-SufI-IAC were performed as described previously. […] The presence of a Δψ was determined by measuring oxonol VI fluorescence in presence of Tat^+ IMVs (A280 = 0.5), as described previously, except that the translocation buffer lacked BSA. Steady-state fluorescence spectra and fluorescence intensities of whole cells producing mCherry proteins were determined with an SLM-8100 spectrofluorometer.

[2] = target: T1, E. coli Tat machinery (IMVs containing overproduced TatABC); test: In vitro Tat transport assay of pre-SufI into IMVs, NADH as energy source; type: biochemical; conditions: hit compound 100 μM
[3] = test system: E. coli Tat machinery (IMVs containing overproduced TatABC); test: as above; type: biochemical, Escherichia coli; conditions: out of 22 independent assays by three different people
Procedure: as §1
Fig 8 Effect of Hits from the Local HTS on In Vitro Tat Transport. (A) Tat transport assays of pre-SufI using NADH to generate a Δψ. Inverted membrane vesicles (IMVs; A280 = 5.0), the fluorescent substrate pre-SufI-IAC^Atto565 (90 nM), and NADH (4 mM) were incubated at 37°C for 30 min with DMSO (control) or with hit compound (20 μM). Samples were treated with the protease proteinase K, run on SDS-PAGE, and analyzed by in-gel fluorescence imaging. Assays were run in duplicate. Band intensity corresponds to the amount of protein transported into the IMV lumen. The following 7 compounds survived this screen: 1^JS, 51^JS, 55^JS, 111^JS, 181^JS, 202^JS, and 140^JS (boxed in red). (B) Tat transport assays of pre-SufI using ATP to generate a Δψ. All 7 compounds surviving the screen in (A) were tested using a Tat transport assay performed identically to those in (A) except that ATP (1 mM) was used in place of NADH. Compound 55^JS was eliminated by this assay—the other 6 compounds survived (boxed in red). (C) Chemical structure of compound 55^JS, N-(4,7-Dioxo-4,7-dihydro-2,1,3-benzoxadiazol-5-yl)acetamide.
Isolation of inverted membrane vesicles (IMVs), Western blot analyses and purification of pre-SufI-IAC were performed as described previously. Western blots were performed using rabbit anti-mCherry antibodies (1:10,000 dilution) in the presence of 0.1% Triton X-100 and 0.1% Tween 20. The pre-SufI-IAC protein was labeled with Atto565 maleimide, and the resultant fluorescent protein, pre-SufI-IAC^Atto565, was used as a substrate for the in vitro Tat transport assays (A280 = 5.0), as described previously. The presence of a Δψ was determined by measuring oxonol VI fluorescence in presence of Tat^+ IMVs (A280 = 0.5), as described previously, except that the translocation buffer lacked BSA. Steady-state fluorescence spectra and fluorescence intensities of whole cells producing mCherry proteins were determined with an SLM-8100 spectrofluorometer.
Supplementary file pone.0149659.s003.tiff: S3 Fig IC50's for Hit Compound 181^JS. (A) The total cellular mCherry fluorescence (live cell assay; n = 1), (B) the in vitro NADH-dependent Tat transport efficiency of pre-SufI (n = 1), and (C) the maximum transmembrane electrical potential gradient (n = 1) were measured for a range of concentrations of compound 181^JS (S2E Fig). (D) SDS-PAGE gel showing in-gel fluorescence data used in (B). For (A), cells expressing spTorA-mCherry-SsrA were grown under Tat^++ conditions in a 384-well plate in the presence of 0, 0.08, 0.15, 0.3, 0.63, 1.25, 2.5, 5, 10, 20, or 40 μM compound 181^JS, as described for the HTS assay (see Methods). For (B) and (C), IMVs were incubated with the same concentrations of compound 181^JS prior to initiation of Tat transport and Δψ generation by the addition of NADH, as described previously. The red curves are best-fits using y = d + (100-d)/(1+(x/IC50)^b), where b is a slope factor and d is the high concentration asymptote. (TIFF) Click here for additional data file.

[4] = test system: E. coli Tat machinery (IMVs containing overproduced TatABC); test: In vitro Tat transport assay of pre-SufI into IMVs, ATP as energy source; type: biochemical, Escherichia coli; conditions: hit compound 100 μM
Procedure: as §1, §2, §3

[5] = test system: E. coli Tat machinery (IMVs containing overproduced TatABC); test: In vitro Tat transport assay of pre-SufI into IMVs, NADH as energy source; type: biochemical, Escherichia coli; conditions: hit compound 100 μM

T1 sequence (P69423 2-258): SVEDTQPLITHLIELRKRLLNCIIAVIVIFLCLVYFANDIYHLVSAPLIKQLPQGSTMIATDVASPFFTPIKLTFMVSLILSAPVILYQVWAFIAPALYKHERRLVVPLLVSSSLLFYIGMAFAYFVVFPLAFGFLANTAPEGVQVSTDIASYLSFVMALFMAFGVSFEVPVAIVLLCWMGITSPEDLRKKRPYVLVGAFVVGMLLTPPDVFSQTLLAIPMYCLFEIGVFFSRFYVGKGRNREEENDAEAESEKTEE
T1 sequence (P69425 whole entry): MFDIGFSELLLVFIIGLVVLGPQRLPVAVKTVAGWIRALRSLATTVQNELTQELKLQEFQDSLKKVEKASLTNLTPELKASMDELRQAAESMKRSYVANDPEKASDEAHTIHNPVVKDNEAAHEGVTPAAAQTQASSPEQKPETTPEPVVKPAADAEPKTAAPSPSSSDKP
T1 sequence (P69428 whole entry): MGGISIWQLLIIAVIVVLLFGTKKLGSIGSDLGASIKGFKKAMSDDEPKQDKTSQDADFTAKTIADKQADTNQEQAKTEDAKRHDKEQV

Row | SMILES | outcome of ATP-dependent in vitro Tat transport screen (survival = visible inhibition of Tat transport) [1] | outcome of NADH-dependent in vitro Tat transport screen (survival = visible inhibition of Tat transport) [2] | number of assays in which Tat transport was inhibited [3] [times] | outcome of ATP-dependent in vitro Tat transport screen (survival = visible inhibition of Tat transport) [4] | outcome of NADH-dependent in vitro Tat transport screen (survival = visible inhibition of Tat transport) [5]
1 | N#CC1c2ccccc2-n2nncc2CN1Cc1cc(Cl)cc(Cl)c1 (centres unmarked) [21^NIH, 5-[(3,5-dichlorophenyl)methyl]-4,6-dihydrotriazolo[1,5-a][1, 4]benzodiazepine-6-carbonitrile] | survived | survived | – | – | –
2 | Oc1cc(Cl)ccc1Oc1ccc(Cl)cc1Cl [Compound 18^NIH, 5-Chloro-2-(2,4-dichlorophenoxy)phenol] | – | – | 12 | survived | survived
